The target in one data set is T1, recombinant human IDO (Homo sapiens, UniProt P14902).
T1 construct: purchased R&D Systems (Minneapolis, MN, USA)
Put plainly: IDO enzymatic assay. To be noted: in vitro enzymatic assay. It counts as biochemical.

Data set [1] deals with BMDM. Put plainly: TNF+cycloheximide-stimulated apoptosis (cell viability, Caspase 3/7). It counts as cell-based, mouse. The settings on record: 100 nM. The method, then: Caspase 3/7 activity was measured at 6 h using the Caspase-Glo 3/7 assay (Promega).
Data set [2] has as its system mouse fibrosarcoma L929 cells. Put plainly: TNF+zVAD-induced necroptosis, CellTiter-Glo. It counts as cell-based. To be noted: overnight, read-out: IC50 blocking necroptosis. Here is the method: (§1) Mouse fibrosarcoma L929 cells (ATCC# CCL-1) and human monocytic U937 cells (ATCC# CRL-1593.2) were cultured in RPMI media supplemented with 10% heat-inactivated FBS, 100 U/ml penicillin and […] streptomycin. BMDM were prepared from C57BL/6 mice by differentiation with 10 ng/ml M-CSF (R&D Systems) for 7 days and cultured in DMEM medium supplemented with 10% heat-inactivated FBS, 100 U/ml penicillin, 100 μg/ml streptomycin and 0.25 μg/ml amphotericin. Primary human neutrophils were isolated from human blood following the standard method comprised of sequential sedimentation in dextran, density centrifugation in Ficoll–Hypaque and lysis of contaminating red blood cells.
(§2) […] To evaluate the effect of RIP1 inhibitors, cells were pretreated with compound (dose–response) for 30 min. Induced cell death was evaluated 19–21 h later by measuring cellular ATP levels using CellTiter-Glo Luminescent Cell Viability assay (Promega, Fitchburg, WI, USA). To induce necroptosis in neutrophils, freshly isolated human neutrophils were stimulated with TNF (10 ng/ml), QVD-Oph (50 μM) and SMAC mimetic (100 nM). Induced cell death was evaluated as above.
(In general: ATP-based viability assays read luminescence as a measure of living cells.)

Data set [3] deals with human monocytic U937 cells. The data set is described as follows: TNF+zVAD-induced necroptosis, CellTiter-Glo. It counts as cell-based. The settings on record: U-937, U937, overnight, read-out: IC50 blocking necroptosis. Here is the method: as §1, §2
The subject of a further data set is human and murine cells. The data set is described as follows: RIP1-dependent cell death, summary statements. It is filed as cell-based. To be noted: read-out: IC50 inhibiting RIP1-dependent cell death. The method, then: (§3) Necroptotic cell death was induced in BMDM, L929 and U937 cells with TNF in the presence of caspase inhibitor zVAD-FMK or QVD-Oph (BMDM: 50 ng/ml TNF+50 μM zVAD; L929: 100 ng/ml TNF+50 μM QVD; U937: 100 ng/ml TNF+25 μM QVD). To evaluate the effect of RIP1 inhibitors, cells were pretreated with compound (dose–response) for 30 min. Induced cell death was evaluated 19–21 h later by measuring cellular ATP levels using CellTiter-Glo Luminescent Cell Viability assay (Promega, Fitchburg, WI, USA). To induce necroptosis in neutrophils, freshly isolated human neutrophils were stimulated with TNF (10 ng/ml), QVD-Oph (50 μM) and SMAC mimetic (100 nM). Induced cell death was evaluated as above.

The nature of data set [4]: Pharmacokinetic profile after i.p. administration. To be noted: i.p., mice. It is filed as in vivo, C57BL/6 mice. Here is the method: Briefly, pharmacokinetic studies were conducted using n=3 animals per group for each compound. […] Blood samples were obtained at various time points following intraperitoneal injection and diluted 1 : 1 with water prior to storage at −80 °C.
Prior to bioanalysis, samples were thawed and each analyte was isolated using a method based on protein precipitation. The resulting supernatant was injected into an LC/MS/MS system optimized for detection of the compound of interest. Data were reported as quantitative drug concentrations as determined by standard calibration curve analysis. Using these optimized conditions, the typical lower limit of quantitation achieved was 1.00 ng/ml for both compounds.

The subject of another data set is C57BL/6 mice. The data set is described as follows: TNF+zVAD-induced shock model (temperature loss). The settings on record: 15 min before TNF+zVAD. It counts as in vivo, mouse. Here is the method: Temperature was monitored over the course of 3 h by rectal probe.
Data set [5] concerns primary mouse bone marrow-derived macrophages (BMDMs). The data set is described as follows: TNF+zVAD-induced necroptosis, CellTiter-Glo. It is filed as cell-based. To be noted: BMDM, read-out: IC50 blocking necroptosis. Here is the method: as §1, §3
Data set [6] deals with BMDM. The data set is described as follows: TNF-induced NFκB activation (IκB phosphorylation and degradation, Western blot). It is filed as cell-based, mouse. The settings on record: 100 nM. An excerpt:
Lysates prepared in 1× Cell Lysis Buffer (Cell Signaling, Danvers, MA, USA) containing protease and phosphatase inhibitors were separated on 4–12% SDS-PAGE and blotted onto nitrocellulose membrane (Invitrogen, Waltham, MA, USA). Blots were probed for IκB (9242, Cell Signaling), phospho-IκB (2859, Cell Signaling), and tubulin as a loading control.

In data set [7] the test system is primary human neutrophils. The data set is described as follows: TNF, zVAD and SMAC mimetic-induced necroptosis, CellTiter-Glo. It counts as cell-based. To be noted: Neutrophil, read-out: IC50 blocking necroptosis. Here is the method: as §1
Necroptotic cell death was induced in BMDM, L929 and U937 cells with TNF in the presence of caspase inhibitor zVAD-FMK or QVD-Oph (BMDM: 50 ng/ml TNF+50 μM zVAD; L929: 100 ng/ml TNF+50 μM QVD; U937: 100 ng/ml TNF+25 μM QVD). To evaluate the effect of RIP1 inhibitors, cells were pretreated with compound (dose–response) for 30 min. Induced cell death was evaluated 19–21 h later by measuring cellular ATP levels using CellTiter-Glo Luminescent Cell Viability assay (Promega, Fitchburg, WI, USA). […] Induced cell death was evaluated as above.

Entries after “also recorded” stand apart in the source; their conditions may differ.

T1 sequence (P14902 whole entry): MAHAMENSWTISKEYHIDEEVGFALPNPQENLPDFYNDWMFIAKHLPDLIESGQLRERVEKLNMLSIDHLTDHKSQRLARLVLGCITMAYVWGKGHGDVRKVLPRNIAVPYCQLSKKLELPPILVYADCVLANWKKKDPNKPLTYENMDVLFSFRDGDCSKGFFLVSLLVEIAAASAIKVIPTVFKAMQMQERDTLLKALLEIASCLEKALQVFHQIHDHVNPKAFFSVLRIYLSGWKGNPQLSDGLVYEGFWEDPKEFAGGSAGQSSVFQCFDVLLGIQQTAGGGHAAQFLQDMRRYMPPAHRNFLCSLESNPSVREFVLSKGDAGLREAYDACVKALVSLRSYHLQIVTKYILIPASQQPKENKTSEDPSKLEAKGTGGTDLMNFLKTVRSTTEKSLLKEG
Procedure for recombinant human IDO: IDO activity was determined as described by Takahashi et al.[25] using recombinant human IDO purchased from R&D Systems (Minneapolis, MN, USA). The yellow pigment derived from kynurenine was measured at 490 nm using the Spectramax microplate reader (Molecular Devices).

`CC(C)(C)C(=O)N1N=CC[C@H]1c1ccccc1` [GSK′963]: on recombinant human IDO, the “effect on IDO activity” value was “lacks measurable activity; also recorded: no effect; also recorded: inactive”. Moreover, the “effect on TNF+CHX-stimulated apoptosis” value in the data set with BMDM [1] was “no measurable effects; also recorded: no effect”. The concentration for half-maximal inhibition (IC50) (usually the concentration that gives 50% inhibition) was 1 nM in data set [2]; 4 nM in data set [3]; 1 to 4 nM in the data set on human and murine cells; 3 nM in [5]; 0.9 nM in data set [7]. The apparent half-life result in data set [4] is “greater than that for Nec-1”. In addition, the “protection from TNF+zVAD-induced temperature loss” value in the data set with C57BL/6 mice (0.2 mg/kg i.p.) was “significant response”; with C57BL/6 mice (2 mg/kg i.p.) it was “completely inhibit temperature loss; also recorded: complete protection”. Besides, the “effect on TNF-induced NFκB activation” value in the data set with BMDM [6] was “no measurable effects; also recorded: no effect”.

These data come from article PMC4979471 (Cell Death Discovery, 2015).
